Assay results: patent US10351594B2, “Process for preparing compounds having triple activities of thrombolysis, antithrombosis, and radical scavenging” (Shanghai Lumosa Therapeutics Co., Ltd., priority 2013, dated 2019)
“Also recorded” adds a separate entry of the source. Marks after values point to notes of the source that are not given here.

Assays:
[1] = system: thrombus (rat arteriovenous bypass thrombolysis model); test: Thrombolytic activity via intravenous administration, rat arteriovenous bypass thrombolysis model; type: in vivo, male SD rats; conditions: rat; for Weight reduction in thrombus: intravenous injection, 5Aa-p 0.1 nmol/kg, 1 hour, n = 10; for Thrombolytic activity, result in words: intravenous, 0.1 nmol/kg (5Ak also 0.01 and 0.001 nmol/kg), urokinase 20000 U/kg
Protocol: 200-220 g male SD rats were anesthetized with 20% urethane solution (6 mL/kg, ip). Anesthetized rats were fixed in a supine position, and the right common carotid artery was separated, clamped at the proximal end with an arterial clip, and penetrated with a suture at the proximal and distal ends, respectively. The suture at the distal end is clipped tightly by a hemostatic clamp at the skin/fur. Cannulation was performed at the distal end, the arterial clamp was loosened, and about 1 ml arterial blood was discharged into a 1 mL EP vial. 0.1 mL rat arterial blood was injected into a vertically fixed glass tube (15 mm in length, with an inner diameter of 2.5 mm and an outer diameter of 5.0 mm, sealed with a rubber stopper at the bottom), into which was immediately inserted a thrombus immobilization screw made of stainless steel. […] 40 min after the blood coagulated, the rubber stopper at the bottom of the glass tube was removed, the stem of the thrombus immobilization screw was fixed by forceps, and the thrombus-wrapped thrombus immobilization screw was carefully taken out from the glass tube and precisely weighted.
A bypass cannula was composed of 3 segments. The middle segment was a polyethylene tube having a length of 60 mm and an inner diameter of 3.5 mm. The segments on both ends were similar polyethylene tubes having a length of 100 mm, an inner diameter of 1 mm and an outer diameter of 2 mm, one end of which was pulled to form a tip, with an outer diameter of 1.0 mm (used in inserting into the rat carotid artery or vein), the other end of which was sheathed by a polyethylene tube having a length of 7 mm and an outer diameter of 3.5 mm (thickened, used in inserting into the polyethylene tube of the middle segment). The inner wall of the 3-segment cannula was entirely silylated. The thrombus-wrapped thrombus immobilization screw was placed into the polyethylene tube of the middle segment, and both ends of the tube sheath the thickened ends of two polyethylene tubes. The cannula was filled with a heparin solution in normal saline (50 IU/kg) through the tip end by using an injector and was ready for use.
The left external jugular vein of the rat was separated and penetrated with a suture at the proximal and distal ends respectively, and the distal end was ligated. An incision was carefully made on the exposed left external jugular vein, and the tip of the bypass cannula prepared as described above was inserted into the proximal end of the incision in the left external jugular vein, away from the stem of the thrombus immobilization screw in the middle segment of the bypass cannula (which accommodated the accurately weighed thrombus immobilization screw). A precise amount of heparin in saline (50 IU/kg) was injected through the tip at the other end by using an injector. At this moment, without removing the injector from the polyethylene tube, the tube between the injector and the polyethylene tube was clamped with a hemostatic clamp. The blood flow was stopped by clamping the proximal end of the right common carotid artery with an arterial clip, and an incision was cut carefully across the common carotid artery near the clip. The injector was pulled out of the polyethylene tube through the tip, and the tip of the polyethylene tube was then inserted into the proximal end of the artery incision. Both ends of the bypass cannula were fixed to the artery or vein with #4 sutures.
A scalp needle was used to pass saline solution, a urokinase in saline solution or varied concentrations of the compounds in saline solution through the middle section of the bypass cannula (which accommodated the accurately weighed thrombus immobilization screw) to a position at the proximal vein and away from the thrombus immobilization screw. The artery clip was then removed to allow blood to flow from the artery to the vein through the bypass cannula. A rat arteriovenous bypass thrombolysis model was thus established. […]

[2] = Hydroxyl free radical scavenging activity (DMPO signal peak height); type: biochemical; conditions: n = 6; read-out: EC50 of scavenging •OH
Protocol: 11.316 mg DMPO ([…], Sigma) was dissolved in 1 mL of pure water to obtain 0.1 M DMPO solution. […] FeSO4.7H2O was dissolved in 1 mL of pure water to obtain 10 mM solution. 30% medical H2O2 was diluted to 0.2%.
The first peak height of the OH signal of 2.5 μL FeSO4.7H2O solution+2.5 μL DMPO solution+5 μL H2O2 solution+5 μL water was measured and repeated for 6 times. This peak height defined as the known peak height of OH signal. The first peak height of the OH signal of 2.5 μL FeSO4.7H2O solution+2.5 μL DMPO solution+5 μL H2O2 solution+5 μL solution of one of the compounds 5Aa-p was measured and repeated for 6 times. This peak height defined as the residual peak height of the OH signal scavenged by one of the compounds 5Aa-p. Scavenging ratio=(known peak height of OH signal−residual peak height of OH signal of compounds 5Aa-p)/known peak height of OH signal

Row | Compound | EC50 [2] | Weight reduction in thrombus [1] | Thrombolytic activity, result in words [1]
1 | 3S-6,7-dihydroxy-1,1-dimethyl-1,2,3,4-tetrahydro-isoquinoline-3-acyl-Lys(Pro-Ala-Ala) [Compound 5Aa] | 459 ± 66 µM | 19.35 ± 2.76^b mg | comparable to that of urokinase; also recorded: higher thrombolytic activity
2 | C[C@H](NC(=O)[C@@H]1CCCN1)C(=O)N[C@@H](Cc1ccc(O)cc1)C(=O)NCCCC[C@H](NC(=O)[C@@H]1Cc2cc(O)c(O)cc2C(C)(C)N1)C(=O)O [Compound 5Ad, 3S-6,7-dihydroxy-1,1-dimethyl-1,2,3,4-tetrahydro-isoquinoline-3-acyl-Lys(Pro-Ala-Tyr)] | 369 ± 32 µM | 18.11 ± 2.48^b mg | higher thrombolytic activity
3 | C[C@H](NC(=O)[C@@H]1CCCN1)C(=O)N1CCC[C@H]1C(=O)NCCCC[C@H](NC(=O)[C@@H]1Cc2cc(O)c(O)cc2C(C)(C)N1)C(=O)O [Compound 5Ae, 3S-6,7-dihydroxy-1,1-dimethyl-1,2,3,4-tetrahydro-isoquinoline-3-acyl-Lys(Pro-Ala-Pro)] | 466 ± 47 µM | 13.63 ± 1.92^a mg | 
4 | CC(C)C[C@H](NC(=O)[C@H](C)NC(=O)[C@@H]1CCCN1)C(=O)NCCCC[C@H](NC(=O)[C@@H]1Cc2cc(O)c(O)cc2C(C)(C)N1)C(=O)O [Compound 5Al, 3S-6,7-dihydroxy-1,1-dimethyl-1,2,3,4-tetrahydro-isoquinoline-3-acyl-Lys(Pro-Ala-Leu)] | 489 ± 32 µM | 14.65 ± 2.86^a mg | 
5 | C[C@H](NC(=O)[C@@H]1CCCN1)C(=O)N[C@@H](CCC(N)=O)C(=O)NCCCC[C@H](NC(=O)[C@@H]1Cc2cc(O)c(O)cc2C(C)(C)N1)C(=O)O [Compound 5Am, 3S-6,7-dihydroxy-1,1-dimethyl-1,2,3,4-tetrahydro-isoquinoline-3-acyl-Lys(Pro-Ala-Gln)] | 466 ± 77 µM | 16.65 ± 2.52^a mg | 
6 | C[C@H](NC(=O)[C@@H]1CCCN1)C(=O)N[C@@H](CC(N)=O)C(=O)NCCCC[C@H](NC(=O)[C@@H]1Cc2cc(O)c(O)cc2C(C)(C)N1)C(=O)O [Compound 5An, 3S-6,7-dihydroxy-1,1-dimethyl-1,2,3,4-tetrahydro-isoquinoline-3-acyl-Lys(Pro-Ala-Asn)] | 572 ± 72 µM | 16.44 ± 2.32^a mg | 
7 | C[C@H](NC(=O)[C@@H]1CCCN1)C(=O)N[C@@H](CC(=O)O)C(=O)NCCCC[C@H](NC(=O)[C@@H]1Cc2cc(O)c(O)cc2C(C)(C)N1)C(=O)O [Compound 5Ao, 3S-6,7-dihydroxy-1,1-dimethyl-1,2,3,4-tetrahydro-isoquinoline-3-acyl-Lys(Pro-Ala-Asp)] | 396 ± 48 µM | 15.86 ± 2.21^a mg | comparable to that of urokinase
8 | C[C@H](NC(=O)[C@@H]1CCCN1)C(=O)N[C@@H](CCC(=O)O)C(=O)NCCCC[C@H](NC(=O)[C@@H]1Cc2cc(O)c(O)cc2C(C)(C)N1)C(=O)O [Compound 5Ap, 3S-6,7-dihydroxy-1,1-dimethyl-1,2,3,4-tetrahydro-isoquinoline-3-acyl-Lys(Pro-Ala-Glu)] | 400 ± 51 µM | 16.03 ± 2.14^a mg | 

More lines, in order of falling EC50 [2], values ahead:

Row | EC50 [2] | Compound | Weight reduction in thrombus [1] | Thrombolytic activity, result in words [1]
9 | 544 ± 43 µM | C[C@H](NC(=O)[C@@H]1CCCN1)C(=O)N[C@@H](Cc1ccccc1)C(=O)NCCCC[C@H](NC(=O)[C@@H]1Cc2cc(O)c(O)cc2C(C)(C)N1)C(=O)O [Compound 5Af, 3S-6,7-dihydroxy-1,1-dimethyl-1,2,3,4-tetrahydro-isoquinoline-3-acyl-Lys(Pro-Ala-Phe)] | 17.92 ± 1.69^b mg | comparable to that of urokinase; also recorded: higher thrombolytic activity
10 | 495 ± 61 µM | CC[C@H](C)[C@H](NC(=O)[C@H](C)NC(=O)[C@@H]1CCCN1)C(=O)NCCCC[C@H](NC(=O)[C@@H]1Cc2cc(O)c(O)cc2C(C)(C)N1)C(=O)O [Compound 5Ai, 3S-6,7-dihydroxy-1,1-dimethyl-1,2,3,4-tetrahydro-isoquinoline-3-acyl-Lys(Pro-Ala-Ile)] | 16.00 ± 2.03^a mg | 
11 | 471 ± 71 µM | 3S-6,7-dihydroxy-1,1-dimethyl-1,2,3,4-tetrahydro-isoquinoline-3-acyl-Lys(Pro-Ala-Val) [Compound 5Ab] | 17.12 ± 1.64^a mg | 
12 | 422 ± 61 µM | 3S-6,7-dihydroxy-1,1-dimethyl-1,2,3,4-tetrahydro-isoquinoline-3-acyl-Lys(Pro-Ala-Gly) [Compound 5Ag] | 18.98 ± 2.14^b mg | comparable to that of urokinase; also recorded: higher thrombolytic activity
13 | 416 ± 28 µM | C[C@H](NC(=O)[C@@H]1CCCN1)C(=O)N[C@H](C(=O)NCCCC[C@H](NC(=O)[C@@H]1Cc2cc(O)c(O)cc2C(C)(C)N1)C(=O)O)[C@@H](C)O [Compound 5Aj, 3S-6,7-dihydroxy-1,1-dimethyl-1,2,3,4-tetrahydro-isoquinoline-3-acyl-Lys(Pro-Ala-Thr)] | 15.23 ± 2.45^a mg | 
14 | 413 ± 73 µM | C[C@H](NC(=O)[C@@H]1CCCN1)C(=O)N[C@@H](CO)C(=O)NCCCC[C@H](NC(=O)[C@@H]1Cc2cc(O)c(O)cc2C(C)(C)N1)C(=O)O [Compound 5Ah, 3S-6,7-dihydroxy-1,1-dimethyl-1,2,3,4-tetrahydro-isoquinoline-3-acyl-Lys(Pro-Ala-Ser)] | 17.10 ± 1.79^a mg | 
15 | 378 ± 85 µM | C[C@H](NC(=O)[C@@H]1CCCN1)C(=O)N[C@@H](Cc1c[nH]c2ccccc12)C(=O)NCCCC[C@H](NC(=O)[C@@H]1Cc2cc(O)c(O)cc2C(C)(C)N1)C(=O)O [Compound 5Ac, 3S-6,7-dihydroxy-1,1-dimethyl-1,2,3,4-tetrahydro-isoquinoline-3-acyl-Lys(Pro-Ala-Trp)] | 16.23 ± 2.81^a mg | 
